Results from a compilation of properties of binary mixtures (doi:10.1080/01932691.2021.1974876).

Experiment: xn = mol fraction of the nth substance listed
Settings: 100 kPa

CC[n+]1ccn(C)c1.N#C[S-] + CO
Settings | electrical conductivity [S/m] | viscosity [mPa·s]
293.15 K, x1 = 0.0988 | 1.83 | 2.9
293.15 K, x1 = 0.1966 | 2.24 | 5
293.15 K, x1 = 0.3005 | 2.25 | 7.5
293.15 K, x1 = 0.3859 | 2.16 | 9.5
293.15 K, x1 = 0.5006 | 2 | 12.3
293.15 K, x1 = 0.5972 | 1.87 | 14.9
293.15 K, x1 = 0.6996 | 1.76 | 18
293.15 K, x1 = 0.804 | 1.68 | 21
293.15 K, x1 = 0.8997 | 1.64 | 24
293.15 K, x1 = 1 | 1.64 | 27
298.15 K, x1 = 0.0988 | 2.08 | 2.5
298.15 K, x1 = 0.1966 | 2.44 | 4.4
298.15 K, x1 = 0.3005 | 2.45 | 6.4
298.15 K, x1 = 0.3859 | 2.36 | 8.1
298.15 K, x1 = 0.5006 | 2.2 | 10.6
298.15 K, x1 = 0.6996 | 1.96 | 15.2
298.15 K, x1 = 0.804 | 1.88 | 18
298.15 K, x1 = 0.8997 | 1.84 | 20
298.15 K, x1 = 1 | 1.83 | 23
303.15 K, x1 = 0.0988 | 2.34 | 2.1
303.15 K, x1 = 0.1966 | 2.67 | 3.8
303.15 K, x1 = 0.3005 | 2.66 | 5.5
303.15 K, x1 = 0.5006 | 2.42 | 9.1
303.15 K, x1 = 0.5972 | 2.29 | 11
303.15 K, x1 = 0.6996 | 2.18 | 13.1
303.15 K, x1 = 0.804 | 2.1 | 15.3
303.15 K, x1 = 0.8997 | 2.05 | 18
308.15 K, x1 = 0.1966 | 2.89 | 3.3
308.15 K, x1 = 0.3005 | 2.88 | 4.8
308.15 K, x1 = 0.3859 | 2.81 | 6.1
308.15 K, x1 = 0.5972 | 2.52 | 9.6
308.15 K, x1 = 0.6996 | 2.41 | 11.4
308.15 K, x1 = 0.804 | 2.33 | 13.4
308.15 K, x1 = 0.8997 | 2.29 | 15.5
313.15 K, x1 = 0.0988 | 2.82 | 1.7
313.15 K, x1 = 0.1966 | 3.12 | 2.9
313.15 K, x1 = 0.3005 | 3.12 | 4.2
313.15 K, x1 = 0.3859 | 3.04 | 5.3
313.15 K, x1 = 0.5006 | 2.89 | 6.9
313.15 K, x1 = 0.5972 | 2.77 | 8.3
313.15 K, x1 = 0.6996 | 2.66 | 10
313.15 K, x1 = 0.804 | 2.58 | 11.7
313.15 K, x1 = 0.8997 | 2.54 | 13.5
313.15 K, x1 = 1 | 2.52 | 15.4
318.15 K, x1 = 0.0988 | 3.06 | 1.5
318.15 K, x1 = 0.1966 | 3.4 | 2.5
318.15 K, x1 = 0.3005 | 3.4 | 3.6
318.15 K, x1 = 0.3859 | 3.31 | 4.6
318.15 K, x1 = 0.5006 | 3.15 | 6
318.15 K, x1 = 0.5972 | 3.04 | 7.3
318.15 K, x1 = 0.6996 | 2.93 | 8.8
318.15 K, x1 = 0.804 | 2.85 | 10.3
318.15 K, x1 = 0.8997 | 2.81 | 11.9
318.15 K, x1 = 1 | 2.79 | 13.6
323.15 K, x1 = 0.0988 | 3.31 | 1.35
323.15 K, x1 = 0.3859 | 3.6 | 4
323.15 K, x1 = 0.5006 | 3.4 | 5.3
323.15 K, x1 = 0.5972 | 3.3 | 6.4
323.15 K, x1 = 0.6996 | 3.22 | 7.7

CO + CC[n+]1ccn(C)c1.N#C[S-]
x2 = 0
Settings | viscosity [mPa·s]
293.15 K | 0.59
303.15 K | 0.51
308.15 K | 0.48
313.15 K | 0.45
323.15 K | 0.41
